Reference: patent publication US20210253550A1, “THERAPEUTIC COMPOUNDS AND COMPOSITIONS” (eXIthera Pharmaceuticals, Inc., priority 2018, published 2021)

What was measured:
[1] = Solubility of Compound 1.HCl measured gravimetrically in solvents/solvent mixtures; type: physicochemical; details: thermodynamic from solid, slurried 48 h, gravimetric
Method: Solubility of Compound 1.HCl was measured gravimetrically in 12 different solvents and solvent mixtures at 15 and 45° C. About 90 mg of the compound was dispensed in 1 mL of the solvent/solvent mixture and slurried for 48 h. The vials were centrifuged. The supernatant was collected and left for slow evaporation under vacuum at 45° C. The solids obtained after evaporation were used to determine the solubility of Compound 1.HCl and analyzed by XRPD for any new form. Table 1 represents the solubility of Compound 1.HCl in different solvents.

[2] = Dynamic Vapor Sorption (DVS) with XRPD before and after; type: physicochemical
Method: Samples were analyzed using an Aquadyne DVS-2 gravimetric water sorption analyzer. The relative humidity was adjusted between 2-95% and the weight of the sample was continuously monitored and recorded with respect to the relative humidity and time.
The same material was subjected under the Dynamic Vapor Sorption (DVS, FIGS. 3 and 4).
The purity of the sample was also verified by ^1H-NMR. […] The amorphous salt was also studied by DVS. During Desorption 1, (from 50 to 0% RH), a weight loss of around 3% was observed whilst, during Sorption 1 (from 0 to 95% RH), a weight gain of 10%. Desorption 2 indicates a weight loss of 3% was observed and during Sorption 2 (from 0 to 95% RH) the weight loss was continued to additional 1%. In the final stage, Desorption 3 (from 95 to 50% RH), around 1% weight loss was observed (see FIG. 17). The amorphous Compound 1.HCl was analyzed by XRPD and optical microscopy post-DVS experiment.

[3] = Relative stability of the forms: competitive slurries of Pattern A and amorphous form; type: physicochemical; details: Pattern A + amorphous form in TBME, IPA and THF:H2O (95:5), RT and 45° C.
[4] = test system: blood coagulation components; type: in vivo
Method: The following parameters and endpoints were evaluated in this study: mortality, body weight, physical, clinical pathology parameters (hematology and coagulation), coagulation time, and bioanalytical parameters.
The vehicle and test article were administered via intravenous (IV) infusion once on Day 1 for 135 minutes (initiated 30 minutes prior to starting the Cardiopulmonary Bypass (CPB) and continuing for 105 minutes of CPB). Group 2 animals received a […] IV bolus dose immediately prior to the start of IV infusion. Group 3, 4, and 5 animals received a 10 mg/kg IV bolus dose prior to the start of the IV infusion; with the CPB machine primed with test article at 10 μg/mL.
Infusion of the Compound 1 was started 30 minutes prior to the animal being placed on the CPB pump. The CPB pump was primed with 0.9% saline.
Venous and arterial sheaths were flushed with the Compound 1 at a concentration of 10 μg/mL. An IV bolus dose of the test article was administered immediately prior to the start of the infusion. Infusion of Compound 1 was started 30 minutes prior to the animal being placed on the CPB pump. The CPB […] was primed with 10 μg/mL of the Compound 1 prior to initiation of the CPB pump.
An IV bolus dose of the Compound 1 was administered immediately prior to the start of the infusion. Infusion of Compound 1 was started 30 minutes prior to the animal being placed on the CPB pump.

[5] = Heating of amorphous salt at 140° C., XRPD and DSC; type: physicochemical; details: amorphous salt heated to 140° C. for 30 min (Sample D9)
Method: FIG. 18 illustrates the post-DVS XRPD comparison with the amorphous and Pattern A (original salt). The amorphous salt was heated to 140° C. for 30 min and characterized by XRPD and DSC (Sample ID: D9). […] The DSC thermogram in FIG. 21 also confirms the conversion of amorphous to crystalline (Pattern A) after heating the amorphous sample at 140° C.

[6] = amorphous salt (Sample C1), from 0 to 95% RH

**Q.** What does the source list for `C[C@@H](NC(=O)N1C(=O)[C@H](Cc2ccnc(N)c2)[C@H]1C(=O)O)C1CCCCC1.Cl` [Compound 1.HCl]?
**A.** solubility at 48 h ([1]; aqueous with cosolvent or surfactant or cyclodextrin, MeOH:H2O (1:1), 15° C.): > 100000 µg/mL; solubility at 48 h ([1]; aqueous with cosolvent or surfactant or cyclodextrin, MeOH:H2O (1:1), 45° C.): > 100000 µg/mL; solubility at 48 h ([1]; organic solvent or mixture, Acetone, 15° C.): 2200 µg/mL; solubility at 48 h ([1]; organic solvent or mixture, Acetone, 45° C.): 4800 µg/mL; solubility at 48 h ([1]; organic solvent or mixture, EtOAc, 15° C.): 200 µg/mL; solubility at 48 h ([1]; organic solvent or mixture, EtOAc, 45° C.): 2100 µg/mL; solubility at 48 h ([1]; organic solvent or mixture, EtOH:H2O (95:5), 15° C.): > 100000 µg/mL; solubility at 48 h ([1]; organic solvent or mixture, EtOH:H2O (95:5), 45° C.): > 100000 µg/mL; solubility at 48 h ([1]; organic solvent or mixture, Heptane, 15° C.): < 1000 µg/mL; solubility at 48 h ([1]; organic solvent or mixture, Heptane, 45° C.): 2100 µg/mL; solubility at 48 h ([1]; organic solvent or mixture, IPA, 15° C.): 17000 µg/mL; solubility at 48 h ([1]; organic solvent or mixture, IPA, 45° C.): 43000 µg/mL; solubility at 48 h ([1]; organic solvent or mixture, IPA:H2O (9:1), 15° C.): > 100000 µg/mL; solubility at 48 h ([1]; organic solvent or mixture, IPA:H2O (9:1), 45° C.): > 100000 µg/mL; solubility at 48 h ([1]; organic solvent or mixture, MeCN, 15° C.): 700 µg/mL; solubility at 48 h ([1]; organic solvent or mixture, MeCN, 45° C.): 700 µg/mL; solubility at 48 h ([1]; organic solvent or mixture, MeOH, 15° C.): > 100000 µg/mL; solubility at 48 h ([1]; organic solvent or mixture, MeOH, 45° C.): > 100000 µg/mL; solubility at 48 h ([1]; organic solvent or mixture, TBME, 15° C.): 400 µg/mL; solubility at 48 h ([1]; organic solvent or mixture, TBME, 45° C.): 4100 µg/mL; solubility at 48 h ([1]; organic solvent or mixture, THF, 15° C.): 1200 µg/mL; solubility at 48 h ([1]; organic solvent or mixture, THF, 45° C.): 6700 µg/mL; solubility at 48 h ([1]; Water, 15° C.): > 100000 µg/mL; solubility at 48 h ([1]; Water, 45° C.): > 100000 µg/mL; crystalline pattern by XRPD after DVS ([2]; crystalline Pattern A, after DVS): did not change; moisture uptake (DVS) ([2]; crystalline Pattern A, relative humidity levels between 0-95%): about 4%; solid form by XRPD of competitive slurries after 24 h [3]: did not exhibit any change in the crystalline form (Pattern A); solid form by XRPD of competitive slurries at t=5 min [3]: transformed to Pattern A

**Q.** For `C[C@@H](NC(=O)N1C(=O)[C@H](Cc2ccnc(N)c2)[C@H]1C(=O)O)C1CCCCC1` [Compound 1, (2S,3R)-3-[(2-aminopyridin-4-yl)methyl]-1-{[(1R)-1-cyclohexylethyl]carbamoyl}-4-oxoazetidine-2-carboxylic acid], which morbidity or mortality ([4]; dog, in vivo) is on record?
**A.** not associated with any increases in morbidity or mortality

**Q.** And the survival ([4]; dog, in vivo)?
**A.** All animals survived to study termination

**Q.** And the “prevention of activation of blood coagulation in components of cardiopulmonary bypass” value ([4]; hound CPB model, 105-minute CPB run)?
**A.** successful in preventing the activation of blood coagulation in components of cardiopulmonary bypass

**Q.** And the “pressure gradient across the membrane oxygenator” value ([4]; hound CPB model, IV infusion at multiple doses, entire pump run)?
**A.** stayed consistent through the entire run

**Q.** What about the “selectivity of anticoagulant effects” value ([4]; hound CPB model, coagulation parameters) of the same compound?
**A.** selective to inhibition of activated partial thromboplastin time (aPTT)

**Q.** And the “aPTT during Compound 1 infusion and prior to CPB” value ([4]; hound, all animals, IV infusion 3 or 10 mg/kg/hr)?
**A.** moderately to markedly prolonged

**Q.** What about the “aPTT following cessation of infusion and CPB, at the conclusion of the study” value ([4]; hound, all groups) of the same compound?
**A.** remained moderately prolonged

**Q.** For `C[C@@H](NC(=O)N1C(=O)[C@H](Cc2ccnc(N)c2)[C@H]1C(=O)O)C1CCCCC1.Cl` [amorphous Compound 1.HCl], which “weight loss, DVS Desorption 2” value ([2]; amorphous salt (Sample C1)) is on record?
**A.** 3%

**Q.** What about the “solid form by XRPD post-DVS” value ([2]; amorphous salt (Sample C1), post-DVS experiment) of the same compound?
**A.** reverts back to crystalline salt (Pattern A)

**Q.** And the “additional weight loss, DVS Sorption 2” value [2, 6]?
**A.** 1%

**Q.** And the “weight gain, DVS Sorption 1” value [2, 6]?
**A.** 10%

**Q.** What about the “weight loss, DVS Desorption 1” value ([2]; amorphous salt (Sample C1), from 50 to 0% RH) of the same compound?
**A.** around 3%

**Q.** What about the “weight loss, DVS Desorption 3” value ([2]; amorphous salt (Sample C1), from 95 to 50% RH) of the same compound?
**A.** around 1%

**Q.** And the “solid form by XRPD after heating” value [5]?
**A.** transformation to Pattern A (crystalline salt)
